Laboratory results published in ChEMBL document CHEMBL5154755, “Discovery of Novel Indazoles as Potent and Selective PI3Kδ Inhibitors with High Efficacy for Treatment of Hepatocellular Carcinoma” (J Med Chem, 2022).
pIC50: −log10 of the molar value. One block for each compound: values may come before it. Calls of active or inactive are those of the source. The rule behind the calls is not given here.

How the values were obtained:
Bel-7402 [1] = assay: Antitumor activity against human Bel-7402 cells xenografted in BAlb/c (nu/nu) mouse assessed as inhibition rate at 30 mg/kg, po daily measured after 14 days; assay type: functional; details: Bel-7402, 336 h, time 14 day
Bel-7402 [2] = assay: Antitumor activity against human Bel-7402 cells xenografted in BAlb/c (nu/nu) mouse assessed as T/C ratio at 30 mg/kg, po daily measured after 14 days; assay type: functional; details: time 14 day
Bel-7402 [3] = assay: Antitumor activity against human Bel-7402 cells xenografted in Balb/c (nu/nu) mouse assessed as tumor weight at 30 mg/kg, po qd after 14 days (Rvb=0.65 +/- 0.06 g); assay type: functional; details: time 14 day
Bel-7402 [4] = assay: Antitumor activity against human Bel-7402 cells xenografted in Balb/c (nu/nu) mouse assessed as relative tumor volume at 30 mg/kg, po qd after 14 days (Rvb=25.69+/-2.73); assay type: functional; details: time 14 day
Bel-7402 [5] = assay: Antiproliferative activity against human Bel-7402 cells assessed as inhibition of cell growth incubated for 72 hrs by SRB assay; assay type: functional, cell-based; details: Bel-7402, 72 h
Hep 3B2 [6] = assay: Antiproliferative activity against human Hep3B cells assessed as inhibition of cell growth incubated for 72 hrs by SRB assay; assay type: functional, cell-based
Bel-7402 [7] = assay: Induction of apoptosis in human Bel-7402 cells assessed as increase in apoptotic cells at 50 uM for 24 hrs by TUNEL staining method; assay type: functional, cell-based
Bel-7402 [8] = assay: cells; details: Homo sapiens, Bel-7402, 72 h, read-out: INH
HepG2 [9] = assay: cells; details: Homo sapiens, HepG2, 72 h, read-out: INH
Hep 3B2 [10] = assay: cells; details: Homo sapiens, Hep3B, 72 h, read-out: INH
HepG2 [11] = assay: cells; details: Homo sapiens, HepG2, 72 h
Description: Antiproliferative activity against human HepG2 cells assessed as inhibition of cell growth incubated for 72 hrs by SRB assay

Bel-7402 [12] = assay: animal or person; details: Mus musculus, Bel-7402, po, 336 h, read-out: INH
HepG2 [13] = assay: Induction of apoptosis in human HepG2 cells assessed as increase in expression of cleaved caspase-3 at 1.5625 to 50 uM incubated for 24 hrs by Western blotting analysis; assay type: functional, cell-based; details: dose 1.5625-50 µM, DDE = dose-dependent effect
[14] = Toxicity in Balb/c (nu/nu) mouse xenografted with human Bel-7402 cells assessed as change in body weight at 20 to 40 mg/kg, po daily after 14 days; assay type: organism-based; details: in vivo, 336 h, dose 20-40 mg/kg, time 14 day
[15] = molecular target: Phosphatidylinositol 4,5-bisphosphate 3-kinase catalytic subunit alpha isoform (Homo sapiens, UniProt P42336); assay: Inhibition of PI3Kalpha (unknown origin) using PIP2 as substrate incubated for 1 hr in presence of ATP by ADP-Glo assay
[16] = molecular target: Phosphatidylinositol 4,5-bisphosphate 3-kinase catalytic subunit beta isoform (Homo sapiens, UniProt P42338); assay: Inhibition of PI3Kbeta (unknown origin) using PIP2 as substrate incubated for 1 hr in presence of ATP by ADP-Glo assay
[17] = molecular target: Phosphatidylinositol 4,5-bisphosphate 3-kinase catalytic subunit gamma isoform (Homo sapiens, UniProt P48736); assay: Inhibition of PI3Kgamma (unknown origin) using PIP2 as substrate incubated for 1 hr in presence of ATP by ADP-Glo assay
HepG2 [18] = assay: Induction of apoptosis in human HepG2 cells assessed as increase in expression of cleaved PARP at 1.5625 to 50 uM incubated for 24 hrs by Western blotting analysis; assay type: functional, cell-based; details: dose 1.5625-50 µM, DDE = dose-dependent effect
Bel-7402 [19] = assay: Induction of apoptosis in human Bel-7402 cells assessed as increase in apoptotic cells at 12.5 to 50 uM for 24 hrs by TUNEL staining method; assay type: functional, cell-based; details: dose 12.5-50 µM
Bel-7402 [20] = assay: Induction of apoptosis in human Bel-7402 cells assessed as decrease in EGf dependent Akt phosphorylation at serine 473 residue at 0.3 to 10 uM measured after 24 hrs by western blotting analysis; assay type: functional, cell-based; details: dose 0.3-10 µM, DDE = dose-dependent effect
Bel-7402 [21] = assay: Induction of apoptosis in human Bel-7402 cells assessed as decrease in EGf dependent Akt phosphorylation at threonine 308 residue at 0.3 to 10 uM measured after 24 hrs by western blotting analysis; assay type: functional, cell-based; details: dose 0.3-10 µM, DDE = dose-dependent effect
HepG2 [22] = assay: Induction of apoptosis in human HepG2 cells assessed as decrease in EGf dependent Akt phosphorylation at serine 473 residue at 0.3 to 10 uM measured after 24 hrs by western blotting analysis; assay type: functional, cell-based; details: dose 0.3-10 µM, DDE = dose-dependent effect
HepG2 [23] = assay: Induction of apoptosis in human HepG2 cells assessed as decrease in EGf dependent Akt phosphorylation at threonine 308 residue at 0.3 to 10 uM measured after 24 hrs by western blotting analysis; assay type: functional, cell-based; details: dose 0.3-10 µM, DDE = dose-dependent effect
Bel-7402 [24] = assay: Induction of apoptosis in human Bel-7402 cells xenografted in Balb/c (nu/nu) mouse assessed as increase in expression of cleaved PARP at 20 to 40 mg/kg, po daily after 14 days by western blot analysis; assay type: functional, organism-based; details: dose 20-40 mg/kg, time 14.0 day
Bel-7402 [25] = assay: Induction of apoptosis in human Bel-7402 cells xenografted in Balb/c (nu/nu) mouse assessed as increase in expression of cleaved caspase-3 at 20 to 40 mg/kg, po daily after 14 days by western blot analysis; assay type: functional, organism-based; details: dose 20-40 mg/kg, time 14.0 day
Bel-7402 [26] = assay: Induction of apoptosis in human Bel-7402 cells xenografted in Balb/c (nu/nu) mouse assessed as decrease in phosphorylation of Akt at serine 473 residue at 20 to 40 mg/kg, po daily after 14 days by western blot analysis; assay type: functional, organism-based; details: dose 20-40 mg/kg, time 14.0 day
Bel-7402 [27] = assay: Induction of apoptosis in human Bel-7402 cells xenografted in Balb/c (nu/nu) mouse assessed as increase in apoptotic cells at 20 to 40 mg/kg, po daily after 14 days by DAPI staining based assay; assay type: functional, organism-based; details: dose 20-40 mg/kg, time 14.0 day
Bel-7402 [28] = assay: Induction of apoptosis in human Bel-7402 cells xenografted in Balb/c (nu/nu) mouse assessed as decrease in cell proliferation at 20 to 40 mg/kg, po daily after 14 days by Ki-67 staining based immunohistochemical analysis; assay type: functional, organism-based; details: dose 20-40 mg/kg, time 14.0 day
Bel-7402 [29] = assay: Induction of apoptosis in human Bel-7402 cells assessed as increase in expression of cleaved PARP at 1.5625 to 50 uM incubated for 24 hrs by Western blotting analysis; assay type: functional, cell-based; details: dose 1.5625-50 µM, DDE = dose-dependent effect
Bel-7402 [30] = assay: Induction of apoptosis in human Bel-7402 cells assessed as increase in expression of cleaved caspase-3 at 1.5625 to 50 uM incubated for 24 hrs by Western blotting analysis; assay type: functional, cell-based; details: dose 1.5625-50 µM, DDE = dose-dependent effect

Sequence of Phosphatidylinositol 4,5-bisphosphate 3-kinase catalytic subunit beta isoform (P42338 whole entry, canonical isoform): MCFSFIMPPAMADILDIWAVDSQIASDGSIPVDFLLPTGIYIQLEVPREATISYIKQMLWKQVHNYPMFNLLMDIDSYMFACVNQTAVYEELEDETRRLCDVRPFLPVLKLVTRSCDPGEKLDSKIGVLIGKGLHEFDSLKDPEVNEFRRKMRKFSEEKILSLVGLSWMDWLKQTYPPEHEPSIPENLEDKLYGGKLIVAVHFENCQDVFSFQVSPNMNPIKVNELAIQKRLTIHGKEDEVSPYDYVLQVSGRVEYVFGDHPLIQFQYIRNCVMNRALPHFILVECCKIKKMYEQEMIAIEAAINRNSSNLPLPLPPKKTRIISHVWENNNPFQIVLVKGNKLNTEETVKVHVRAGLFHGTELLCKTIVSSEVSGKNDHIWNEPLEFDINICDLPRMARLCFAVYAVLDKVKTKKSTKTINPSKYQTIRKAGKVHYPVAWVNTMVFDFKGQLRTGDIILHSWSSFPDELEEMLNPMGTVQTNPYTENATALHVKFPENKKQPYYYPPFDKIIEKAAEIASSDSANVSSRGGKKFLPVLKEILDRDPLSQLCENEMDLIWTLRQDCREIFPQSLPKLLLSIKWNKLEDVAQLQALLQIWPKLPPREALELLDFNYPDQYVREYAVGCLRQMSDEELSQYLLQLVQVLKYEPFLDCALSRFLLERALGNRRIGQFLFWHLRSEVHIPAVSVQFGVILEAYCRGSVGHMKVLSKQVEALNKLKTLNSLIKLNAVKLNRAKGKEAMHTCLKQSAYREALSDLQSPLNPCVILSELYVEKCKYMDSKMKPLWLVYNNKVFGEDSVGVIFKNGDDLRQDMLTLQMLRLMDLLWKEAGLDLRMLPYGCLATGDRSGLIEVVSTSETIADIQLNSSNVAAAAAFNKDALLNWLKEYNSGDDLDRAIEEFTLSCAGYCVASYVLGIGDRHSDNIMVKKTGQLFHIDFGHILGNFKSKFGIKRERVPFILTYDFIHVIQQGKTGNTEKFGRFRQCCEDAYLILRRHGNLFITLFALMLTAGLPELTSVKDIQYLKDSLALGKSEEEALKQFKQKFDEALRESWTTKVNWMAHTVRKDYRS
Sequence of Phosphatidylinositol 4,5-bisphosphate 3-kinase catalytic subunit gamma isoform (P48736 whole entry, canonical isoform): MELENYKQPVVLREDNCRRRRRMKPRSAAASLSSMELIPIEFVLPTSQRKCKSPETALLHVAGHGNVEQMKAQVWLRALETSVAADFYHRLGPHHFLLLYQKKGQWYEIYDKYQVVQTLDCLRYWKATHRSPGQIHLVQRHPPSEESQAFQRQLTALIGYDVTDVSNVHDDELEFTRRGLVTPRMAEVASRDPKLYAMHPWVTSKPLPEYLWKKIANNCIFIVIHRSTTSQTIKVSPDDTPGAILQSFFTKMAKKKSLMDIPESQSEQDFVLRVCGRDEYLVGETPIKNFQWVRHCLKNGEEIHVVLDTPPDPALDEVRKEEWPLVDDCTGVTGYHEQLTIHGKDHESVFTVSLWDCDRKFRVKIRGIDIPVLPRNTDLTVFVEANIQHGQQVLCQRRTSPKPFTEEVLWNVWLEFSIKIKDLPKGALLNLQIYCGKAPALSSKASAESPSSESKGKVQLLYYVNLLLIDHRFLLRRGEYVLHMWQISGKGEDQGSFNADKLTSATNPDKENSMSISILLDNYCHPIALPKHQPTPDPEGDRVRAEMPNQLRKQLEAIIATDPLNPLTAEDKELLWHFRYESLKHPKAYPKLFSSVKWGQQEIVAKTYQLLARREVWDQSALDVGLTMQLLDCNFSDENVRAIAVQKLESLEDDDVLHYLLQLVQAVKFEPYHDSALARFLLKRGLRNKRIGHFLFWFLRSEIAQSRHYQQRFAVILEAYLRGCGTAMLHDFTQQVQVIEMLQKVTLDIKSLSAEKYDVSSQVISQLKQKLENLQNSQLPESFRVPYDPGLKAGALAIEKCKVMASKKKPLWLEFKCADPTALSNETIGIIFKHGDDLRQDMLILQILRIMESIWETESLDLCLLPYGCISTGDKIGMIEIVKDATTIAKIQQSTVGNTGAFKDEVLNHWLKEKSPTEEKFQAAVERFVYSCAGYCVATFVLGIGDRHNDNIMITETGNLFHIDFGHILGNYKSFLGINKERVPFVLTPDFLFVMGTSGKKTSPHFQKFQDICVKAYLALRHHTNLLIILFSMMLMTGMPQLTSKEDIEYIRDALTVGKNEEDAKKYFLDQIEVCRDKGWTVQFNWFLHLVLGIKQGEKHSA
Sequence of Phosphatidylinositol 4,5-bisphosphate 3-kinase catalytic subunit alpha isoform (P42336 whole entry, canonical isoform): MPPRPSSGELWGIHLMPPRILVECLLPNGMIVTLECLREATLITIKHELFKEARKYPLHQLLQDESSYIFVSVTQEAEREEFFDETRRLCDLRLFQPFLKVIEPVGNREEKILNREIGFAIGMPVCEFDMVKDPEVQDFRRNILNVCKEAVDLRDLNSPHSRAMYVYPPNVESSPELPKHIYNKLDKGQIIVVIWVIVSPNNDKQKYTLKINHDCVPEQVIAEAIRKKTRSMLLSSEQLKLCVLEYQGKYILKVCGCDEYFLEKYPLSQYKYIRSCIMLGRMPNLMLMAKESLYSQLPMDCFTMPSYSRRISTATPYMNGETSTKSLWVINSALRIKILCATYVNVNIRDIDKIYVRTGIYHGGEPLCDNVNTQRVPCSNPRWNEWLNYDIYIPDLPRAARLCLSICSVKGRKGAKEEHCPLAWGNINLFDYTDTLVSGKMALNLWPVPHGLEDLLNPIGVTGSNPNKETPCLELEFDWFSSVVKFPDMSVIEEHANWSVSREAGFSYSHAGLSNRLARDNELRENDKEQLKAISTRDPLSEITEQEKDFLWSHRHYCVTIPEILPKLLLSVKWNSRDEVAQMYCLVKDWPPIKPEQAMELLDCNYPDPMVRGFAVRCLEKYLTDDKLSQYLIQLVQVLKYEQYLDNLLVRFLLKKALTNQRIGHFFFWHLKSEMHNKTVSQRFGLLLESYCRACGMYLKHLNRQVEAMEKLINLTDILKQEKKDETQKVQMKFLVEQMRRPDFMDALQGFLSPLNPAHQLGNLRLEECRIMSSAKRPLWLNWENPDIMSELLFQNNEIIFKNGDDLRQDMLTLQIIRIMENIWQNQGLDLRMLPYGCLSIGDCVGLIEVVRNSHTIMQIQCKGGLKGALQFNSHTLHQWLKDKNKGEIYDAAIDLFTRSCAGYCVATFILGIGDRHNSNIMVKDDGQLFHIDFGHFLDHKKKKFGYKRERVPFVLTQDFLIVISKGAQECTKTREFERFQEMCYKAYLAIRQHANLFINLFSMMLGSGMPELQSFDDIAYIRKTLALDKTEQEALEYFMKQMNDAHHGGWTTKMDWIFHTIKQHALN

Structure (SMILES): CNC(=O)c1cc(Oc2ccc(NC(=O)Nc3ccc(Cl)c(C(F)(F)F)c3)cc2)ccn1 [SORAFENIB]
inhibition in vivo at 30 mg/kg (Bel-7402 [1]): 51.3% | T/C (Bel-7402 [2]): 45.13% | Activity (Bel-7402 [3]): 0.32 g | Activity (Bel-7402 [4]): 11.6

pIC50 (Bel-7402 [5]): 4.18 | pIC50 (HepG2 [11]): 4.05
Structure (SMILES): CC[C@H](Nc1ncnc2[nH]cnc12)c1nc2cccc(F)c2c(=O)n1-c1ccccc1 [IDELALISIB]
pIC50 (Hep 3B2 [6]): 4.11 | Activity (Bel-7402 [7]): Active | inhibition at 10 µM (Bel-7402 [8]): 9% | inhibition at 10 µM (HepG2 [9]): 20% | inhibition at 10 µM (Hep 3B2 [10]): 21% | inhibition in vivo at 40 mg/kg (Bel-7402 [12]): 44.6%

pIC50 [15]: < 6.00 | pIC50 [16]: 7.39 | pIC50 [17]: 6.56 | pIC50 (Bel-7402 [5]): 5.87 | pIC50 (HepG2 [11]): 6.28
Structure (SMILES): C[C@H](Nc1nc(N)nc(N)c1C#N)c1nn(-c2cccnc2)c2cc(Cl)ccc12
Activity (HepG2 [13]): Dde | Activity [14]: Non-Toxic | pIC50 (Hep 3B2 [6]): 5.96 | Activity (HepG2 [18]): Dde | Activity (Bel-7402 [19]): Active | Activity (Bel-7402 [20]): Dde | Activity (Bel-7402 [21]): Dde | Activity (HepG2 [22]): Dde | Activity (HepG2 [23]): Dde | Activity (Bel-7402 [24]): Active | Activity (Bel-7402 [25]): Active | Activity (Bel-7402 [26]): Active | Activity (Bel-7402 [27]): Active | Activity (Bel-7402 [28]): Active | Activity (Bel-7402 [29]): Dde | Activity (Bel-7402 [30]): Dde
